Source: the NIST ThermoML archive (doi:10.1016/j.jct.2013.08.016)

What was measured:
[1] = refractive index (Na D-line) (dimensionless); mn = molality of the nth substance listed, in mol/kg; conditions: 101.3 kPa, Liquid, Standard Abbe refractometry
[2] = mn = molality of the nth substance listed, in mol/kg; conditions: 101.3 kPa, Liquid; for viscosity: Capillary tube (Ostwald / Ubbelohde) method; for mass density: Pycnometric method; for speed of sound: Single path-length method

O=C1O[C@H]([C@@H](O)CO)C(O)=C1O [L-ascorbic acid] + O
Conditions	mass density, [2] [kg/m3]	refractive index, [1]	speed of sound, [2] [m/s]	viscosity, [2] [mPa·s]
278.15 K, m1 = 0.0502	1003.69	1.3353	1429.5	1.566
278.15 K, m1 = 0.0997	1007.29	1.3365	1432.8	1.606
278.15 K, m1 = 0.1384	1010.1	1.3378	1434.7	1.634
278.15 K, m1 = 0.1964	1014.25	1.3394	1438.5	1.668
278.15 K, m1 = 0.2338	1016.85	1.3405	1440.5	1.699
278.15 K, m1 = 0.2927	1020.96	1.3419	1443.6	1.737
278.15 K, m1 = 0.3392	1024.27	1.3434	1445.3	1.77
278.15 K, m1 = 0.4069	1028.56	1.3448	1448.9	1.813
278.15 K, m1 = 0.4383	1030.63	1.3459	1451.3	1.842
278.15 K, m1 = 0.4932	1034.36	1.3472	1454.6	1.874
278.15 K, m1 = 0.5541	1038.24	1.3489	1458.2	1.921
278.15 K, m1 = 0.6251	1042.79	1.351	1463.2	1.974
278.15 K, m1 = 0.711	1048.36	1.3533	1467.3	2.033
278.15 K, m1 = 0.7457	1050.45	1.3544	1469.1	2.05
288.15 K, m1 = 0.0496	1002.68	1.3348	1468.6	1.165
288.15 K, m1 = 0.1009	1006.33	1.3364	1471.2	1.184
288.15 K, m1 = 0.1408	1009.14	1.3378	1473.2	1.205
288.15 K, m1 = 0.1952	1012.94	1.339	1476.3	1.236
288.15 K, m1 = 0.2426	1016.2	1.34	1479	1.257
288.15 K, m1 = 0.2997	1020.14	1.3417	1481.7	1.282
288.15 K, m1 = 0.3402	1022.83	1.3428	1483.8	1.288
288.15 K, m1 = 0.3936	1026.48	1.3441	1487.6	1.325
288.15 K, m1 = 0.4492	1030.03	1.3456	1489.1	1.353
288.15 K, m1 = 0.5096	1034.09	1.3471	1492.7	1.386
288.15 K, m1 = 0.5782	1038.38	1.3489	1496.4	1.424
288.15 K, m1 = 0.6302	1041.56	1.3499	1499.1	1.444
288.15 K, m1 = 0.6984	1046.01	1.352	1501.6	1.475
288.15 K, m1 = 0.7426	1048.42	1.3529	1503.6	1.494
298.15 K, m1 = 0.0502	1000.6	1.3339	1498.9	0.9072
298.15 K, m1 = 0.1017	1004.18	1.3354	1501.5	0.9235
298.15 K, m1 = 0.1409	1006.8	1.3365	1503.4	0.935
298.15 K, m1 = 0.1988	1010.73	1.338	1505.2	0.9544
298.15 K, m1 = 0.2402	1013.54	1.3391	1506.7	0.9688
298.15 K, m1 = 0.2987	1017.33	1.3407	1508.9	0.9928
298.15 K, m1 = 0.3421	1020.12	1.3418	1510.9	1.007
298.15 K, m1 = 0.4046	1024.34	1.3431	1514.2	1.028
298.15 K, m1 = 0.4536	1027.31	1.3443	1518.2	1.046
298.15 K, m1 = 0.5119	1030.98	1.3461	1520	1.068
298.15 K, m1 = 0.5788	1035.16	1.3478	1521.8	1.093
298.15 K, m1 = 0.6259	1038.06	1.3497	1523.6	1.111
298.15 K, m1 = 0.6974	1042.37	1.3508	1525.5	1.141
298.15 K, m1 = 0.7486	1045.37	1.3518	1527.3	1.164

O=C1O[C@H]([C@@H](O)CO)C([O-])=C1O.[Na+] [sodium L-ascorbate] + O
Conditions	mass density, [2] [kg/m3]	refractive index, [1]	speed of sound, [2] [m/s]	viscosity, [2] [mPa·s]
278.15 K, m1 = 0.0495	1005.25	1.3359	1432.4	1.564
278.15 K, m1 = 0.102	1010.89	1.338	1438.9	1.61
278.15 K, m1 = 0.1378	1014.72	1.3388	1443.6	1.633
278.15 K, m1 = 0.2009	1021.3	1.3411	1451.6	1.693
278.15 K, m1 = 0.2329	1024.63	1.3428	1456.6	1.727
278.15 K, m1 = 0.2951	1030.95	1.3448	1463.8	1.787
278.15 K, m1 = 0.3361	1035.04	1.3461	1469.1	1.828
278.15 K, m1 = 0.3968	1041.02	1.3485	1478.2	1.891
278.15 K, m1 = 0.4287	1044.29	1.3498	1480	1.925
278.15 K, m1 = 0.4929	1050.46	1.3519	1489.1	1.995
278.15 K, m1 = 0.5436	1055.28	1.3536	1494.6	2.052
278.15 K, m1 = 0.6275	1063.15	1.3564	1503.6	2.152
278.15 K, m1 = 0.6583	1065.96	1.3571	1509.1	2.192
278.15 K, m1 = 0.7407	1073.42	1.3602	1518.2	2.291
288.15 K, m1 = 0.0403	1003.38	1.3351	1470.4	1.167
288.15 K, m1 = 0.1263	1012.42	1.3373	1479.2	1.209
288.15 K, m1 = 0.1604	1015.94	1.3392	1483.6	1.24
288.15 K, m1 = 0.2478	1024.69	1.3423	1494.4	1.303
288.15 K, m1 = 0.301	1029.91	1.3439	1499.1	1.339
288.15 K, m1 = 0.3509	1034.82	1.346	1505.9	1.37
288.15 K, m1 = 0.4457	1043.86	1.3493	1518.2	1.45
288.15 K, m1 = 0.5156	1050.33	1.3502	1525.5	1.504
288.15 K, m1 = 0.5987	1057.95	1.3543	1532.7	1.575
288.15 K, m1 = 0.6446	1062.31	1.3558	1540	1.608
288.15 K, m1 = 0.6909	1066.4	1.3572	1545.5	1.652
288.15 K, m1 = 0.7466	1071.4	1.3592	1552	1.708
298.15 K, m1 = 0.0503	1002.31	1.3344	1501.9	0.9169
298.15 K, m1 = 0.1005	1007.49	1.3362	1507.2	0.9381
298.15 K, m1 = 0.1492	1012.47	1.3378	1512.6	0.9628
298.15 K, m1 = 0.1993	1017.5	1.3397	1518.1	0.9898
298.15 K, m1 = 0.2452	1022.1	1.3414	1522.5	1.007
298.15 K, m1 = 0.301	1027.58	1.3434	1527.6	1.04
298.15 K, m1 = 0.3456	1031.8	1.3449	1533.1	1.062
298.15 K, m1 = 0.4112	1038.01	1.347	1539.9	1.097
298.15 K, m1 = 0.4397	1040.84	1.3479	1542	1.113
298.15 K, m1 = 0.4892	1045.65	1.3495	1547.2	1.146
298.15 K, m1 = 0.5491	1051.09	1.3516	1554.4	1.183
298.15 K, m1 = 0.6035	1056.1	1.3534	1559.1	1.223
298.15 K, m1 = 0.6697	1062.08	1.3553	1565.3	1.257
298.15 K, m1 = 0.7314	1067.47	1.3571	1572.6	1.301
